Results: patent US20220033397A1, “PHARMACEUTICAL COMPOUNDS AND THEIR USE AS INHIBITORS OF UBIQUITIN SPECIFIC PROTEASE 19 (USP19)” (ALMAC DISCOVERY LIMITED, priority 2018, published 2022)

Target: T1, Full-length USP19 (Homo sapiens, UniProt O94966)
T1 construct: Full-length USP19 was purchased from Boston Biochem (E-576); purchased Boston Biochem E-576
T1 sequence (O94966 1-1318): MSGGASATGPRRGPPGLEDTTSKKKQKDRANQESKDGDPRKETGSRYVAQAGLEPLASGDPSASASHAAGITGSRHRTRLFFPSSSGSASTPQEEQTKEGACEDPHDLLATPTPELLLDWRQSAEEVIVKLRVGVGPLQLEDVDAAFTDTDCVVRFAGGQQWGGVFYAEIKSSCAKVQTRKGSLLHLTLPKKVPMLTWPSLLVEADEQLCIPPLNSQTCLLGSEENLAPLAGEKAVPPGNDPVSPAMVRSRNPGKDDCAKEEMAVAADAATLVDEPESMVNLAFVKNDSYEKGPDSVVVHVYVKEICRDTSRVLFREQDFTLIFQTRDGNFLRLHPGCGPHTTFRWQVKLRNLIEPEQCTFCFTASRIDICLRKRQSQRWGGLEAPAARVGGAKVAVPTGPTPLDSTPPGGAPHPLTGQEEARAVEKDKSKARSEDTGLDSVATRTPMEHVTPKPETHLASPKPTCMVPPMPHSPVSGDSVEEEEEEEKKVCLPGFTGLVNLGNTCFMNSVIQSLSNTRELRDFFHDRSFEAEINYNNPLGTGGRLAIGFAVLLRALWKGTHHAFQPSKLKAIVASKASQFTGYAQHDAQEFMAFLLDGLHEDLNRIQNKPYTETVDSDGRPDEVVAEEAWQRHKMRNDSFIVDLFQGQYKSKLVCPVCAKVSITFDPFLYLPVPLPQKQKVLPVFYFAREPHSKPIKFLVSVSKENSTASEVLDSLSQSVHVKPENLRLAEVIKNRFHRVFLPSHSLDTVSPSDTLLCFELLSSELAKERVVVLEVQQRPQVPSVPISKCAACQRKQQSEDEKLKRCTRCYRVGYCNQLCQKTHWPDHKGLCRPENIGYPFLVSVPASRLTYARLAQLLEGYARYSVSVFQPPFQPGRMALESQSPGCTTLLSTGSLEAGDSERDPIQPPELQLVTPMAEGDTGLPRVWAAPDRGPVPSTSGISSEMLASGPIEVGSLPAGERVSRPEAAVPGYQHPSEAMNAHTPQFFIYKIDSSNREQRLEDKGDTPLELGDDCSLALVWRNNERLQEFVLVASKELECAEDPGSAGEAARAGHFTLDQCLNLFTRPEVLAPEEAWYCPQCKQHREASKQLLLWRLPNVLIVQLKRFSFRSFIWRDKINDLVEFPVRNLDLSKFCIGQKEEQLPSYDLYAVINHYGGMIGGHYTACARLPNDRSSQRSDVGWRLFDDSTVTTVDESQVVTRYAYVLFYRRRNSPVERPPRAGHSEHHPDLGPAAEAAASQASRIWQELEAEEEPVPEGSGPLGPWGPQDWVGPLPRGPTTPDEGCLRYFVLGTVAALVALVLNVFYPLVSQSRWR
Assay: USP19 fluorescence polarisation (FP) homogeneous assay with Ubiquitin-Lys-TAMRA substrate
Type: biochemical
Conditions: 2.5 nM USP19, 30 min pre-incubation, average of at least two duplicate experiments
Summary of the method: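 Full-length USP19 preincubated 30 min at RT with inhibitor (200 μM to 2 μM series, 8–18 points) before adding 500 nM Ubiquitin-Lys-TAMRA substrate.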

Row | SMILES | IC50 [µM]
1 | C[C@H](CC1CCCCC1)C(=O)N1CCC(O)(Cn2cnc3cc(F)c(F)cc3c2=O)C2(CCCC2)C1 (stereo partly drawn) [Example 151, 3-((7-((R)-3-Cyclohexyl-2-methylpropanoyl)-10-hydroxy-7-azaspiro[4.5]decan-10-yl)methyl)-6,7-difluoroquinazolin-4(3H)-one] | < 0.5
2 | C[C@H](CC(F)(F)F)C(=O)N1CCC(O)(CN2CC(C3CC3)OCC2=O)C2(CCCC2)C1 (stereo partly drawn) [Example 95, 6-Cyclopropyl-4-((10-hydroxy-7-((R)-4,4,4-trifluoro-2-methylbutanoyl)-7-azaspiro[4.5]decan-10-yl)methyl)morpholin-3-one] | 50 to 250
3 | COc1ncc2c(=O)n(CC3(O)CCN(C(=O)[C@H](C)CC(F)(F)F)CC34CCCC4)ccc2n1 (stereo partly drawn) [Example 59, 6-((10-Hydroxy-7-((R)-4,4,4-trifluoro-2-methylbutanoyl)-7-azaspiro[4.5]decan-10-yl)methyl)-2-methoxypyrido[4,3-d]pyrimidin-5(6H)-one] | 5 to 50
4 | O=C(N1CCC(O)(Cn2ccncc2=O)C2(CCCC2)C1)N1CCNC[C@H]1c1ccccc1 (stereo partly drawn) [Example 91, 1-((10-Hydroxy-7-((R)-2-phenylpiperazine-1-carbonyl)-7-azaspiro[4.5]decan-10-yl)methyl)pyrazin-2(1H)-one] | 0.5 to 5
5 | C[C@H](CC1CCCCC1)C(=O)N1CCC(O)(CN2CCN(c3ccccc3)CC2=O)C2(CCCC2)C1 (stereo partly drawn) [Example 50, 1-((7-((R)-3-Cyclohexyl-2-methylpropanoyl)-10-hydroxy-7-azaspiro[4.5]decan-10-yl)methyl)-4-phenylpiperazin-2-one] | < 0.5
6 | O=C(N1CCC(O)(Cn2cnc3c(cnn3Cc3ccccc3)c2=O)C2(CCCC2)C1)N1CCOC[C@H]1c1ccccc1 (stereo partly drawn) [Example 167, 1-Benzyl-5-((10-hydroxy-7-((R)-3-phenylmorpholine-4-carbonyl)-7-azaspiro[4.5]decan-10-yl)methyl)-1,5-dihydro-4H-pyrazolo[3,4-d]pyrimidin-4-one] | 0.5 to 5
7 | COC(=O)c1cn(CC2(O)CCN(C(=O)[C@H](C)CC3CCCCC3)CC23CCCC3)c(=O)cn1 (stereo partly drawn) [Example 8, Methyl 4-((7-((R)-3-cyclohexyl-2-methylpropanoyl)-10-hydroxy-7-azaspiro[4.5]decan-10-yl)methyl)-5-oxo-4,5-dihydropyrazine-2-carboxylate] | < 0.5
8 | C[C@H](CC1CCCCC1)C(=O)N1CCC(O)(Cn2cc(N3CCCC3=O)ncc2=O)C(C)(C)C1 (stereo partly drawn) [Example 13, 1-((1-((R)-3-Cyclohexyl-2-methylpropanoyl)-4-hydroxy-3,3-dimethylpiperidin-4-yl)methyl)-5-(2-oxopyrrolidin-1-yl)pyrazin-2(1H)-one] | 0.5 to 5
9 | O=C(N1CC[C@@](O)(Cn2cnc(-c3ccccc3)cc2=O)C2(CCCC2)C1)N1CCS(=O)(=O)C[C@H]1c1cc(F)ccc1F [Example 394, 3-(((S)-7-((R)-3-(2,5-Difluoro-phenyl)-1,1-dioxidothio-morpholine-4-carbonyl)-10-hydroxy-7-aza-spiro[4.5]decan-10-yl)methyl)-6-phenylpyrimidin-4(3H)-one] | < 0.5
10 | CN(Cc1ccco1)C(=O)N1CCC(O)(Cn2cnc(-c3ccccc3)cc2=O)C2(CCCC2)C1 (centres unmarked) [Example 242, N-(Furan-2-ylmethyl)-10-hydroxy-N-methyl-10-((6-oxo-4-phenylpyrimidin-1(6H)-yl)methyl)-7-azaspiro[4.5]decane-7-carboxamide] | 50 to 250
11 | Cc1nccn(CC2(O)CCN(C(=O)N3CCNC[C@H]3c3ccccc3)CC23CCCC3)c1=O (stereo partly drawn) [Example 93, 1-((10-Hydroxy-7-((R)-2-phenylpiperazine-1-carbonyl)-7-azaspiro[4.5]decan-10-yl)methyl)-3-methylpyrazin-2(1H)-one] | 5 to 50
12 | CN(C)C(=O)c1cn(CC2(O)CCN(C(=O)NCc3ccccc3)CC23CCCC3)c(=O)cc1-c1ccccc1 (centres unmarked) [Example 85, N-Benzyl-10-((5-(dimethylcarbamoyl)-2-oxo-4-phenylpyridin-1(2H)-yl)methyl)-10-hydroxy-7-azaspiro[4.5]decane-7-carboxamide] | < 0.5
13 | O=C(N1CC[C@@](O)(Cn2cnc(-c3ccccc3OC(F)(F)F)cc2=O)C2(CCCC2)C1)N1CCNC[C@H]1c1ccccc1 [Example 354, 3-(((S)-10-Hydroxy-7-((R)-2-phenylpiperazine-1-carbonyl)-7-azaspiro[4.5]decan-10-yl)methyl)-6-(2-(trifluorometh-oxy)phenyl) pyrimidin-4(3H)-one] | < 0.5
14 | O=C(N1CCC(O)(Cn2cnc3ccc(F)cc3c2=O)C2(CCCC2)C1)N1CCNC[C@H]1c1ccccc1 (stereo partly drawn) [Example 169, 6-Fluoro-3-((10-hydroxy-7-((R)-2-phenylpiperazine-1-carbonyl)-7-azaspiro[4.5]decan-10-yl)methyl)quinazolin-4(3H)-one] | < 0.5
15 | CSc1ncc2c(=O)n(CC3(O)CCN(C(=O)[C@H](C)CC4CCCCC4)CC34CCCC4)ccc2n1 (stereo partly drawn) [Example 55, 6-((7-((R)-3-Cyclohexyl-2-methylpropanoyl)-10-hydroxy-7-azaspiro[4.5]decan-10-yl)methyl)-2-(methylthio)pyrido[4,3-d]pyrimidin-5(6H)-one] | < 0.5
16 | O=C(N1CC[C@@](O)(Cn2ccc(N3CCCC3)cc2=O)C2(CCCC2)C1)N1CCNC[C@H]1c1ccccc1 [Example 330, 1-(((S)-10-Hydroxy-7-((R)-2-phenylpiperazine-1-carbonyl)-7-azaspiro[4.5]decan-10-yl)methyl)-4-(pyrrolidin-1-yl)pyridin-2(1H)-one] | < 0.5
17 | CN(C)C(=O)C1CN(C[C@]2(O)CCN(C(=O)[C@H](CO)CC3CCCCC3)CC2(C)C)C(=O)CC1c1ccccc1 (stereo partly drawn) [Example 26, 1-(((S)-1-((S)-3-Cyclohexyl-2-(hydroxymethyl)propanoyl)-4-hydroxy-3,3-dimethylpiperidin-4-yl)methyl)-N,N-dimethyl-6-oxo-4-phenylpiperidine-3-carboxamide] | < 0.5
18 | O=C1COCCN1CC1(O)CCN(C(=O)N2CCOC[C@H]2c2ccccc2)CC12CCCC2 (stereo partly drawn) [Example 117, 4-((10-Hydroxy-7-((R)-3-phenylmorpholine-4-carbonyl)-7-azaspiro[4.5]decan-10-yl)methyl)morpholin-3-one] | 5 to 50
19 | N#CCc1ccc(CNC(=O)N2CCC(O)(Cn3cnc(-c4ccccc4)cc3=O)C3(CCCC3)C2)cc1 (centres unmarked) [Example 258, N-(4-(Cyanomethyl)benzyl)-10-hydroxy-10-((6-oxo-4-phenylpyrimidin-1(6H)-yl)methyl)-7-azaspiro[4.5]decane-7-carboxamide] | 5 to 50
20 | C[C@H](CC1CCCCC1)C(=O)N1CCC(O)(Cn2cc(C(=O)N3CCNCC3)ncc2=O)C2(CCCC2)C1 (stereo partly drawn) [Example 11, 1-((7-((R)-3-Cyclohexyl-2-methylpropanoyl)-10-hydroxy-7-azaspiro[4.5]decan-10-yl)methyl)-5-(piperazine-1-carbonyl)pyrazin-2(1H)-one] | < 0.5
21 | C[C@H](CC(F)(F)F)C(=O)N1CCC(O)(Cn2cnc3c(cnn3-c3ccccc3)c2=O)C2(CCCC2)C1 (stereo partly drawn) [Example 177, 5-((10-Hydroxy-7-((R)-4,4,4-trifluoro-2-methylbutanoyl)-7-azaspiro[4.5]decan-10-yl)methyl)-1-phenyl-1,5-dihydro-4H-pyrazolo[3,4-d]pyrimidin-4-one] | 5 to 50
22 | O=C(N1CCOC(F)(F)C1)N1CCC(O)(Cn2cnc(-c3ccccc3)cc2=O)C2(CCCC2)C1 (centres unmarked) [Example 253, 3-((7-(2,2-Difluoromorpholine-4-carbonyl)-10-hydroxy-7-azaspiro[4.5]decan-10-yl)methyl)-6-phenylpyrimidin-4(3H)-one] | 5 to 50
23 | C[C@H](CC(F)(F)F)C(=O)N1CCC(O)(Cn2cc(N=S(C)(C)=O)c(-c3ccccc3)cc2=O)C2(CCCC2)C1 (stereo partly drawn) [Example 75, 5-((Dimethyl(oxo)-λ^6-sulfaneylidene)amino)-1-((10-hydroxy-7-((R)-4,4,4-trifluoro-2-methylbutanoyl)-7-azaspiro[4.5]decan-10-yl)methyl)-4-phenylpyridin-2(1H)-one] | < 0.5
